{"source": "ChEMBL document CHEMBL5390253", "about": "“Discovery of Selective and Potent Macrocyclic CDK9 Inhibitors for the Treatment of Osimertinib-Resistant Non-Small-Cell Lung Cancer” (J Med Chem, 2023)", "key": {"[1]": {"molecular_target": "Cyclin-dependent kinase 4/cyclin D1 (Homo sapiens) (UniProt P11802+P24385)", "test": "Inhibition of CDK4/Cyclin D1 (unknown origin) at 200 nM preincubated for 10 mins followed by substrate addition and measured after 60 mins in presence of ATP by ADP-Glo reagent based assay relative to control", "assay_type": "protein-complex assay", "settings": "time 70.0 min"}, "NCI-H1975 [2]": {"tested_on": "NCI-H1975", "test": "Downregulation of cleaved caspase-3 level in human Osimertinib-resistant NCI-H1975 cell measured after 16 hrs by Western blot analysis", "assay_type": "functional, cell-based", "settings": "dose 125-2000 nM"}, "[3]": {"test": "Oral bioavailability in Sprague-Dawley rat at 20 mg/kg measured upto 24 hrs", "assay_type": "ADME, organism-based", "settings": "in vivo"}, "[4]": {"test": "Induction of apoptosis in human Osimertinib-resistant NCI-H1975 cell assessed as viable cells at 125 nM measured after 16 hrs in presence of osimertinib by Annexin V-FITC and PI staining based analysis (reference value: 94.9%)", "assay_type": "functional", "settings": "read-out: Activity"}, "[5]": {"molecular_target": "Dual specificity protein kinase CLK1 (Homo sapiens) (UniProt P49759)", "sequence (P49759 whole entry, looked up)": "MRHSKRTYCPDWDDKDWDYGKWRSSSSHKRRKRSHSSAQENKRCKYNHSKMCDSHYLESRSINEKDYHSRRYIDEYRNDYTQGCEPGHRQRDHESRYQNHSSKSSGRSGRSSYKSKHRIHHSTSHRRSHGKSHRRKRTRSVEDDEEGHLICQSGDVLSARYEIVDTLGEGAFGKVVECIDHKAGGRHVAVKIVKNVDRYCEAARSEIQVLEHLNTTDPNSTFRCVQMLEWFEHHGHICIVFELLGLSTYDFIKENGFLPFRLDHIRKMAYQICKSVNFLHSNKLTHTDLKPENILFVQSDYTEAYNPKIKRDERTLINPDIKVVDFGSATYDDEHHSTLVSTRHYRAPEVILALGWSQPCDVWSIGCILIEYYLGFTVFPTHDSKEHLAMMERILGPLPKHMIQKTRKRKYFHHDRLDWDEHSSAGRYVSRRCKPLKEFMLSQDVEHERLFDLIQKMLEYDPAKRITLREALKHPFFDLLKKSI", "test": "Inhibition of CLK1 (unknown origin) at 500 nM preincubated for 10 mins followed by substrate addition and measured after 60 mins in presence of ATP by ADP-Glo reagent based assay relative to control", "settings": "time 70.0 min"}, "[6]": {"molecular_target": "CDK3/Cyclin E (Homo sapiens) (UniProt P24864+Q00526)", "sequence (P24864 whole entry, looked up)": "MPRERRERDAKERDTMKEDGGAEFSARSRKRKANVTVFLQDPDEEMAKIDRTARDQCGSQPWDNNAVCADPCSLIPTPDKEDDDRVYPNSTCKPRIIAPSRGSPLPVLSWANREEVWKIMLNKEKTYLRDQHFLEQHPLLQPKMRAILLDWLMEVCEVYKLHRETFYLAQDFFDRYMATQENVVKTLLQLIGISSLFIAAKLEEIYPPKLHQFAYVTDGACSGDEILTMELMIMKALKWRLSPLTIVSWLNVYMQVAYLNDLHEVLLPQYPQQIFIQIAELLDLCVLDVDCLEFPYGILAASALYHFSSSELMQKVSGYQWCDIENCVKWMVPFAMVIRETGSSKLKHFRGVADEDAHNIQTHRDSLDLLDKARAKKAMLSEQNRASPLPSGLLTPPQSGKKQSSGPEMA", "sequence (Q00526 whole entry, looked up)": "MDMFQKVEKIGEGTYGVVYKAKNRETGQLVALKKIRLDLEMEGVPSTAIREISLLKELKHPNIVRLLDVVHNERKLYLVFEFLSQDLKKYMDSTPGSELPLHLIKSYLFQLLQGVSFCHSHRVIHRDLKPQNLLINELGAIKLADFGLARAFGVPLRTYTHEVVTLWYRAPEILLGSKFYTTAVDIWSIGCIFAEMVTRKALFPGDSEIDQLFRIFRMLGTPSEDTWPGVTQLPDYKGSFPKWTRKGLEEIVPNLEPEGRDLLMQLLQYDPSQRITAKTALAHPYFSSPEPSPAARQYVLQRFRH", "test": "Inhibition of CDK3/Cyclin E1 (unknown origin) at 200 nM preincubated for 10 mins followed by substrate addition and measured after 60 mins in presence of ATP by ADP-Glo reagent based assay relative to control", "assay_type": "protein-complex assay", "settings": "time 70.0 min"}, "NCI-H1975 [7]": {"tested_on": "NCI-H1975", "test": "Antiproliferative activity against human NCI-H1975 cells incubated for 72 hrs by MTT assay", "assay_type": "functional, cell-based", "settings": "NCI-H1975, 72 h"}, "[8]": {"tested_on": "Osimertinib-resistant HCC827AR cell", "test": "Inhibition of cell growth in 3D-cultured human Osimertinib-resistant HCC827 cell by DAPI and PI staining based analysis", "assay_type": "functional", "settings": "dose 0.049-3.125 µM"}, "[9]": {"test": "Downregulation of Mcl-1 level in human Osimertinib-resistant NCI-H1975 cell at 500 nM measured after 8 hrs by Western blotting analysis relative to control", "assay_type": "functional"}, "[10]": {"molecular_target": "Cyclin-dependent kinase 13/Cyclin-K (Homo sapiens) (UniProt Q14004+O75909)", "sequence (O75909 whole entry, looked up)": "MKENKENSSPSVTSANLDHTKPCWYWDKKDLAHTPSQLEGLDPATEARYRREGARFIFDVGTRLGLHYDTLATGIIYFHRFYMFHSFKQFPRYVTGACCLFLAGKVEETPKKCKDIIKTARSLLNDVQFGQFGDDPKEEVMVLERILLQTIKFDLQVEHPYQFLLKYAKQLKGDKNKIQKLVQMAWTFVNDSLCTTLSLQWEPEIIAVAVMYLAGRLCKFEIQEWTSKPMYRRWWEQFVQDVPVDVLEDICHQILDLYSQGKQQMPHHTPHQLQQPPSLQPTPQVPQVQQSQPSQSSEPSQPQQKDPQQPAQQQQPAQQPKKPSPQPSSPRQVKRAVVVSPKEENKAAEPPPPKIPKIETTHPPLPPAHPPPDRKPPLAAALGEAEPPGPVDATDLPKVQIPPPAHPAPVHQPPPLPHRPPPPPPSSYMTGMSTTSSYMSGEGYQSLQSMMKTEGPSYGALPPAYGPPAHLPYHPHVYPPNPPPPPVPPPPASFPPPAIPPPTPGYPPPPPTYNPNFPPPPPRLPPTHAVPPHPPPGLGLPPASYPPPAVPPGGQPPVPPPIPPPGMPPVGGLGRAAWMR", "sequence (Q14004 whole entry, looked up)": "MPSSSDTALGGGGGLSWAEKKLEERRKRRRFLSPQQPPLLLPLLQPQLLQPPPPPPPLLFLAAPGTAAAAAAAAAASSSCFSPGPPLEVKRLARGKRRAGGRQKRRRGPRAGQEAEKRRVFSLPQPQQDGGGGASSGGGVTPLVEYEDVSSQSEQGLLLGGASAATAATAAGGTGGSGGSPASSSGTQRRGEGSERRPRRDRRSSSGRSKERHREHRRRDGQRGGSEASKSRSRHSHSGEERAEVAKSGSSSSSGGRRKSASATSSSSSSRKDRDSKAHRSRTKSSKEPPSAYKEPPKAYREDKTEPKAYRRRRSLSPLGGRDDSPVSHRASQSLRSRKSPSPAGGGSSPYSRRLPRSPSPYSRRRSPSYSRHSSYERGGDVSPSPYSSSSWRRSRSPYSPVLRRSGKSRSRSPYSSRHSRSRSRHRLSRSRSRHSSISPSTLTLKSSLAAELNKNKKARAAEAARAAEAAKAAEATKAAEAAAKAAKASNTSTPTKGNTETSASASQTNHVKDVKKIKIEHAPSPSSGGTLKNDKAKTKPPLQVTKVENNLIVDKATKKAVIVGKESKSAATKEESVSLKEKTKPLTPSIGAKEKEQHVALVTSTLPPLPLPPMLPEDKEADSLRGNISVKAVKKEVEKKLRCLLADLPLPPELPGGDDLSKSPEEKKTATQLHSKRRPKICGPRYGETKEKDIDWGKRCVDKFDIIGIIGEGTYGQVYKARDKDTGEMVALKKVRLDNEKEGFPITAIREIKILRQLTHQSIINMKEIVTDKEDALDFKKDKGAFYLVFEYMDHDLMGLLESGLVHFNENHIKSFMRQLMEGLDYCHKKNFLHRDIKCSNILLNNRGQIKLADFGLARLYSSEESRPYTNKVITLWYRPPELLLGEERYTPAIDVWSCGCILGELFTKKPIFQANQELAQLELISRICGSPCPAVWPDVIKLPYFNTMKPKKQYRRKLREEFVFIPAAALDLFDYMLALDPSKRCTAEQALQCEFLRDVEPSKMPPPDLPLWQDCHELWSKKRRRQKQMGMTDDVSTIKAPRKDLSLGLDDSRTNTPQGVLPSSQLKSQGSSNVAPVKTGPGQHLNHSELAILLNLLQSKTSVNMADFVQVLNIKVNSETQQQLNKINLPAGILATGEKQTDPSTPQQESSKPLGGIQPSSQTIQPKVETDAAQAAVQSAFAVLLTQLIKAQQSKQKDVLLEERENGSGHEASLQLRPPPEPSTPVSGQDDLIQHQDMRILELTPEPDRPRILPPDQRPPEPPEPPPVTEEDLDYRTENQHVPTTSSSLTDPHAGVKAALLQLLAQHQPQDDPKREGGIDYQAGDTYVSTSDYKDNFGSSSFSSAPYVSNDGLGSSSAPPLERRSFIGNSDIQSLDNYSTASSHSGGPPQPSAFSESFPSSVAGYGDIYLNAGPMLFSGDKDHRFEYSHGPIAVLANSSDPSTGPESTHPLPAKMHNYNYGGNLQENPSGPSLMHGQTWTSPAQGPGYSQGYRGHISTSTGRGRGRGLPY", "test": "Inhibition of CDK13/cyclin K (unknown origin) at 200 nM preincubated for 10 mins followed by substrate addition and measured after 60 mins in presence of ATP by ADP-Glo reagent based assay relative to control", "assay_type": "protein-complex assay", "settings": "time 70.0 min"}, "NCI-H1975 [11]": {"tested_on": "NCI-H1975", "test": "Downregulation of cleaved PARP level in human Osimertinib-resistant NCI-H1975 cell at 125 nM measured after 16 hrs in presence of osimertinib by Western blot analysis", "assay_type": "functional, cell-based"}, "[12]": {"test": "Induction of apoptosis in human Osimertinib-resistant NCI-H1975 cell assessed as early apoptotic cells at 125 nM measured after 16 hrs by Annexin V-FITC and PI staining based analysis (Rvb =1.78%)", "assay_type": "functional"}, "[13]": {"test": "Toxicity in ICR mouse assessed as effect on physical appearance at 1000 mg/kg, po measured for 8 to 9 days", "assay_type": "organism-based", "settings": "in vivo, time 8-9 day"}, "[14]": {"test": "Toxicity in ICR mouse assessed as abnormalities in liver at 1000 mg/kg, po measured after 9 days by H and E staining based analysis", "assay_type": "organism-based", "settings": "in vivo, 216 h, time 9 day"}, "NCI-H1975 [15]": {"tested_on": "NCI-H1975", "test": "Downregulation of Mcl-1 mRNA expression in human Osimertinib-resistant NCI-H1975 cell at 0.1 to 1.0 uM measured after 8 hrs by qPCR analysis", "assay_type": "functional, cell-based", "settings": "dose 0.1-1 µM"}, "[16]": {"molecular_target": "Dual specificity protein kinase CLK2 (Homo sapiens) (UniProt P49760)", "test": "Inhibition of CLK2 (unknown origin) at 100 nM preincubated for 10 mins followed by substrate addition and measured after 60 mins in presence of ATP by ADP-Glo reagent based assay relative to control", "settings": "time 70.0 min"}, "[17]": {"test": "Half life in Sprague-Dawley rat at 2 mg/kg, iv measured upto 24 hrs", "assay_type": "ADME, organism-based", "settings": "in vivo"}, "CDK9/cyclin T1": {"molecular_target": "CDK9/cyclin T1 (Homo sapiens, UniProt P50750)", "test": "Inhibition of CDK9/Cyclin-T1 (unknown origin) preincubated for 10 mins followed by substrate addition and measured after 60 mins in presence of ATP by ADP-Glo reagent based assay", "assay_type": "protein-complex assay"}, "[18]": {"molecular_target": "CDK7/Cyclin H/MNAT1 (Homo sapiens) (UniProt P51946+P50613+P51948)", "test": "Inhibition of CDK7/Cyclin H/MAT1 (unknown origin) at 200 nM preincubated for 10 mins followed by substrate addition and measured after 60 mins in presence of ATP by ADP-Glo reagent based assay relative to control", "assay_type": "protein-complex assay", "settings": "time 70.0 min"}, "[19]": {"molecular_target": "CDK2/Cyclin A2 (Homo sapiens) (UniProt P24941+P20248)", "test": "Inhibition of CDK2/Cyclin A2 (unknown origin) at 200 nM preincubated for 10 mins followed by substrate addition and measured after 60 mins in presence of ATP by ADP-Glo reagent based assay relative to control", "assay_type": "protein-complex assay", "settings": "time 70.0 min"}, "[20]": {"molecular_target": "CDK12/Cyclin K (Homo sapiens) (UniProt O75909+Q9NYV4)", "sequence (O75909 whole entry, looked up)": "as the sequence (O75909 whole entry, looked up) above", "sequence (Q9NYV4 whole entry, looked up)": "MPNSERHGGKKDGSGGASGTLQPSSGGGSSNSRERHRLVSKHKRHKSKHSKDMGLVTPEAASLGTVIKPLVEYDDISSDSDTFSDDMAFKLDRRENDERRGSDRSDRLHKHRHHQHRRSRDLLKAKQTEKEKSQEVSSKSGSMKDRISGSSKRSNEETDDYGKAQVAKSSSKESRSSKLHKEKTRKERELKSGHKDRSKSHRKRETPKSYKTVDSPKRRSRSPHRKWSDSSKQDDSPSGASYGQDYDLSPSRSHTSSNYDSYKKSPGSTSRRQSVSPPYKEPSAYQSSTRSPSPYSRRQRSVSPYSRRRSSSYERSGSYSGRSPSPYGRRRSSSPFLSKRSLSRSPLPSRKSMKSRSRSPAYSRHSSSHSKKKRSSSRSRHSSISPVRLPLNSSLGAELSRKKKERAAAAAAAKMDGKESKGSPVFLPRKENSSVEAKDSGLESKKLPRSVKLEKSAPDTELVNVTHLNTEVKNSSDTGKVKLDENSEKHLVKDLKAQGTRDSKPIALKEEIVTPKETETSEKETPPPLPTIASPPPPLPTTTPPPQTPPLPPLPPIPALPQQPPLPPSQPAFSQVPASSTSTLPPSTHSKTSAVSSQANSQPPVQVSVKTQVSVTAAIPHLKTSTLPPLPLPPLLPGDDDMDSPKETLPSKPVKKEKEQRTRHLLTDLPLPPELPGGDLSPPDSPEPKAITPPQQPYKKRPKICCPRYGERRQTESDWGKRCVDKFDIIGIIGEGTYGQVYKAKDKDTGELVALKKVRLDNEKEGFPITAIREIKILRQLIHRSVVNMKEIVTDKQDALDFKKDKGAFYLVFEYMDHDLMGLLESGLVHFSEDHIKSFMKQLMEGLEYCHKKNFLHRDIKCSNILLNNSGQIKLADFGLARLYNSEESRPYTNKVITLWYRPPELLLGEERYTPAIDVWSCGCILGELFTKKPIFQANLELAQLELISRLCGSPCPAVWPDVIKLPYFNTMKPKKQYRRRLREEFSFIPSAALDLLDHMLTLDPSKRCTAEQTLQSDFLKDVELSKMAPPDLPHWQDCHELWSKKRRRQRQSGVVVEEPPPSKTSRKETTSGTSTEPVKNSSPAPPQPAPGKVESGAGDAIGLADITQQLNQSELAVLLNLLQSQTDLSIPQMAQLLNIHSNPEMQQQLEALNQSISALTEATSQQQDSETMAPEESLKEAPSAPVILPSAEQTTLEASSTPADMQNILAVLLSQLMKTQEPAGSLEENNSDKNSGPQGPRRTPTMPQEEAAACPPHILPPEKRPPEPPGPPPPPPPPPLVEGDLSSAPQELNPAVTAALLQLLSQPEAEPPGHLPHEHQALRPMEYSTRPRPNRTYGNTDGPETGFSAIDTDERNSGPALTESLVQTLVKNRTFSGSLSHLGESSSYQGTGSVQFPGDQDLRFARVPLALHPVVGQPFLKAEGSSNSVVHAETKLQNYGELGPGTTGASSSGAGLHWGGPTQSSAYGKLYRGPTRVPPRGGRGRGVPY", "test": "Inhibition of CDK12/cyclin K (unknown origin) at 200 nM preincubated for 10 mins followed by substrate addition and measured after 60 mins in presence of ATP by ADP-Glo reagent based assay relative to control", "assay_type": "protein-complex assay", "settings": "time 70.0 min"}, "[21]": {"molecular_target": "Receptor-type tyrosine-protein kinase FLT3 (Homo sapiens) (UniProt P36888)", "test": "Inhibition of FLT3 (unknown origin) at 100 nM preincubated for 10 mins followed by substrate addition and measured after 60 mins in presence of ATP by ADP-Glo reagent based assay relative to control", "settings": "time 70.0 min"}, "[22]": {"molecular_target": "T1, Cyclin-dependent kinase 2/cyclin E1 (Homo sapiens) (UniProt P24864+P24941)", "test": "Inhibition of CDK2/Cyclin E1 (unknown origin) at 200 nM preincubated for 10 mins followed by substrate addition and measured after 60 mins in presence of ATP by ADP-Glo reagent based assay relative to control", "assay_type": "protein-complex assay", "settings": "time 70.0 min"}, "NCI-H1975 [23]": {"tested_on": "NCI-H1975", "test": "Downregulation of Mcl-1 level in human Osimertinib-resistant NCI-H1975 cell measured after 8 hrs by Western blotting analysis", "assay_type": "functional, cell-based", "settings": "dose 0.05-2 µM"}, "PC-9": {"tested_on": "PC-9", "test": "Antiproliferative activity against human PC-9 cells incubated for 72 hrs by MTT assay", "assay_type": "functional, cell-based", "settings": "PC-9, 72 h"}, "[24]": {"test": "Induction of apoptosis in human Osimertinib-resistant NCI-H1975 cell assessed as necrotic cells at 2000 nM measured after 16 hrs by Annexin V-FITC and PI staining based analysis (reference value: 0.50%)", "assay_type": "functional"}, "[25]": {"test": "Induction of apoptosis in human Osimertinib-resistant NCI-H1975 cell assessed as early apoptotic cells at 125 nM measured after 16 hrs in presence of osimertinib by Annexin V-FITC and PI staining based analysis (Rvb =1.78%)", "assay_type": "functional"}, "[26]": {"test": "Antitumor activity against patient derived #0243 lung cancer organoid assessed as inhibition of growth measured after 4 days", "assay_type": "functional, tissue-based", "settings": "Homo sapiens, 96 h"}, "[27]": {"molecular_target": "T1, Cyclin-dependent kinase 2/cyclin E1 (Homo sapiens)", "test": "Inhibition of CDK2/cyclin E1 (unknown origin) at 500 nM preincubated for 10 mins followed by substrate addition and measured after 60 mins in presence of ATP by ADP-Glo reagent based assay relative to control", "assay_type": "protein-complex assay", "settings": "time 70.0 min"}}, "note": "The source made the active and inactive calls. The rule behind the calls is not given here.", "data": [{"smiles": "O=C(NCCN1CCOCC1)c1ccc2cc1OCCCCCCOc1cc(ccc1F)-c1nc(ncc1F)N2", "values": [{"measurement": "inhibition", "setting": "[1]", "value": 32.1, "unit": "%"}, {"measurement": "Activity", "setting": "NCI-H1975 [2]", "value": "Dose-Dependent Effect"}, {"measurement": "bioavailability", "setting": "[3]", "value": 8, "unit": "%"}, {"measurement": "viability at 0.125 µM", "setting": "[4]", "value": 78.3, "unit": "%"}, {"measurement": "inhibition", "setting": "[5]", "value": 96.5, "unit": "%"}, {"measurement": "inhibition", "setting": "[6]", "value": 29.6, "unit": "%"}, {"measurement": "IC50", "setting": "NCI-H1975 [7]", "value": 174, "unit": "nM"}, {"measurement": "inhibition", "setting": "[8]", "value": "Dose-Dependent Effect"}, {"measurement": "Activity", "setting": "[9]", "value": 90, "unit": "%"}, {"measurement": "inhibition", "setting": "[10]", "value": 46.7, "unit": "%"}, {"measurement": "Activity", "setting": "NCI-H1975 [11]", "value": "Active"}, {"measurement": "Activity", "setting": "[12]", "value": 4.7, "unit": "%"}, {"measurement": "Activity", "setting": "[13]", "value": "Non-Toxic"}, {"measurement": "Activity", "setting": "[14]", "value": "Non-Toxic"}, {"measurement": "Activity", "setting": "NCI-H1975 [15]", "value": "Active"}, {"measurement": "inhibition", "setting": "[16]", "value": 32.8, "unit": "%"}, {"measurement": "half-life", "setting": "[17]", "value": 1.8, "unit": "h"}, {"measurement": "IC50", "setting": "CDK9/cyclin T1", "value": 3.2, "unit": "nM"}, {"measurement": "inhibition", "setting": "[18]", "value": 12.8, "unit": "%"}, {"measurement": "inhibition", "setting": "[19]", "value": 39.1, "unit": "%"}, {"measurement": "inhibition", "setting": "[20]", "value": 56.4, "unit": "%"}, {"measurement": "inhibition", "setting": "[21]", "value": 21.2, "unit": "%"}, {"measurement": "inhibition", "setting": "[22]", "value": 44.7, "unit": "%"}, {"measurement": "Activity", "setting": "NCI-H1975 [23]", "value": "Dose-Dependent Effect"}, {"measurement": "IC50", "setting": "PC-9", "value": 126, "unit": "nM"}, {"measurement": "Activity", "setting": "[24]", "value": 1.97, "unit": "%"}, {"measurement": "Activity", "setting": "[25]", "value": 3.15, "unit": "%"}, {"measurement": "IC50", "setting": "[26]", "value": 120, "unit": "nM"}, {"measurement": "inhibition", "setting": "[27]", "value": 76.1, "unit": "%"}]}]}
